Test results: the NIST ThermoML archive (doi:10.1021/je1006482)

Legend:
[1] = excess molar enthalpy (molar enthalpy of mixing); xn = mol fraction of the nth substance listed; settings: 101.3 kPa, Liquid, Flow calorimetry
[2] = 101.33 kPa, Liquid

COC(=O)CC(C)=O [methyl 3-oxobutanoate] + CO
excess molar enthalpy [kcal/mol], [1]
Settings	288.2 K	298.2 K	313.2 K	328.2 K
x1 = 0.1004	0.127	0.136	0.148	0.159
x1 = 0.2001	0.209	0.222	0.246	0.261
x1 = 0.3	0.262	0.279	0.306	0.329
x1 = 0.3506	0.28	0.298	0.328	0.35
x1 = 0.4003	0.293	0.309	0.34	0.364
x1 = 0.4497	0.298	0.315	0.347	0.37
x1 = 0.5001	0.301	0.319	0.348	0.37
x1 = 0.551	0.298	0.314	0.345	0.366
x1 = 0.5993	0.289	0.307	0.335	0.353
x1 = 0.6492	0.277	0.29	0.316	0.332
x1 = 0.7004	0.257	0.272	0.292	0.306
x1 = 0.7993	0.202	0.21	0.222	0.233
x1 = 0.8988	0.118	0.117	0.125	0.129

COC(=O)CC(C)=O [methyl 3-oxobutanoate]
[2]
Settings	mass density [kg/m3]
288.2 K	1081.93
298.2 K	1071.18
313.2 K	1055.01
328.2 K	1038.78
338.2 K	1027.89
348.2 K	1016.95

COC(=O)CC(C)=O [methyl 3-oxobutanoate] + CCO
excess molar enthalpy [kcal/mol], [1]
Settings	288.2 K	298.2 K	313.2 K	328.2 K
x1 = 0.1003	0.175	0.188	0.21	0.228
x1 = 0.2002	0.278	0.303	0.343	0.37
x1 = 0.2995	0.34	0.377	0.424	0.451
x1 = 0.3494	0.361	0.399	0.453	0.479
x1 = 0.3995	0.375	0.416	0.47	0.501
x1 = 0.4495	0.384	0.426	0.48	0.509
x1 = 0.5008	0.387	0.428	0.481	0.51
x1 = 0.5497	0.384	0.424	0.476	0.502
x1 = 0.5995	0.375	0.414	0.461	0.483
x1 = 0.65	0.36	0.395	0.44	0.457
x1 = 0.7011	0.337	0.366	0.405	0.419
x1 = 0.7996	0.269	0.288	0.313	0.319
x1 = 0.9006	0.155	0.164	0.173	0.174

COC(=O)CC(C)=O [methyl 3-oxobutanoate] + CC(C)O
excess molar enthalpy [kcal/mol], [1]
Settings	288.2 K	298.2 K	313.2 K	328.2 K
x1 = 0.1002	0.228	0.251	0.272	0.285
x1 = 0.2005	0.349	0.394	0.443	0.469
x1 = 0.2998	0.422	0.48	0.542	0.576
x1 = 0.35	0.448	0.504	0.569	0.605
x1 = 0.4004	0.461	0.525	0.59	0.633
x1 = 0.4493	0.473	0.536	0.601	0.639
x1 = 0.4998	0.476	0.536	0.598	0.634
x1 = 0.5504	0.473	0.531	0.589	0.62
x1 = 0.6008	0.462	0.518	0.565	0.593
x1 = 0.6492	0.444	0.494	0.536	0.558
x1 = 0.6991	0.418	0.461	0.493	0.51
x1 = 0.7997	0.336	0.361	0.374	0.382
x1 = 0.9002	0.194	0.206	0.205	0.211

COC(=O)CC(C)=O [methyl 3-oxobutanoate] + CCCO
excess molar enthalpy [kcal/mol], [1]
Settings	288.2 K	298.2 K	313.2 K	328.2 K
x1 = 0.0994	0.197	0.219	0.244	0.262
x1 = 0.1995	0.311	0.351	0.4	0.433
x1 = 0.2993	0.38	0.43	0.495	0.538
x1 = 0.3492	0.403	0.458	0.527	0.568
x1 = 0.3995	0.42	0.477	0.549	0.59
x1 = 0.45	0.432	0.486	0.56	0.599
x1 = 0.5008	0.435	0.491	0.561	0.601
x1 = 0.5498	0.434	0.487	0.553	0.587
x1 = 0.6007	0.425	0.476	0.534	0.564
x1 = 0.6495	0.41	0.457	0.507	0.533
x1 = 0.7	0.387	0.427	0.471	0.488
x1 = 0.8001	0.314	0.337	0.361	0.37
x1 = 0.9003	0.186	0.192	0.203	0.206
